What is called IC50 is the concentration that inhibits the measured activity by half. Usually Ki stands for a measure of affinity in units of concentration, obtained from inhibition or displacement.

Read-outs that look alike come from different tables or passages of the source.

This is an account of results in article PMC6629613, “Selective and competitive inhibition of kynurenine aminotransferase 2 by glycyrrhizic acid and its analogues” (Scientific Reports, 2019).

Series [1] deals with T1, human KAT2 (Homo sapiens, UniProt Q8N5Z0).
T1 construct: made in house; host or cells: insect Sf9 cells (baculovirus)
T1 sequence (Q8N5Z0 30-425): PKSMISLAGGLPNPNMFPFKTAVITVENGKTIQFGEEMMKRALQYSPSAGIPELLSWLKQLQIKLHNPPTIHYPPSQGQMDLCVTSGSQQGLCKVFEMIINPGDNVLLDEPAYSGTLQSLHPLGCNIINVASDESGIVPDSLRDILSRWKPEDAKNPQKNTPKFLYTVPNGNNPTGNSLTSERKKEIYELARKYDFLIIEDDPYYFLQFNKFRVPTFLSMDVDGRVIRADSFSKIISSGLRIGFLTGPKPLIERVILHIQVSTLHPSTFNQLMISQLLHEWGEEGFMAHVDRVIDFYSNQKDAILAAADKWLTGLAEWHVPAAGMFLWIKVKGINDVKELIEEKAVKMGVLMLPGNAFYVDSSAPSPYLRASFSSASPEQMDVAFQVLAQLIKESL
On the set-up: method as in PMID 18537204, PMID 27367665. The settings on record: read-out: reported IC50; cited from earlier work.

Series [2] concerns the target T1, human KAT2. Nature of the series: Human KAT2 enzyme inhibition, microplate fluorescence assay of KYNA. The series is classed as biochemical. The protocol: High-throughput screening assays for inhibitors of human KAT2 were conducted using a microplate fluorescence assay for kynurenine aminotransferase[26] with minor modifications. In these assays, KAT2 enzyme activities were measured in black 384-well untreated plates. The human KAT2 reaction mixture (20 μL) contained 10 ng/μL recombinant human KAT2, 1 mM L-KYN, 1 mM α-ketoglutaric acid, […], 0.005% Tween 20 and 150 mM AMP buffer (pH 9.5), and was added to 384-well plates containing compounds using a Multidrop dispenser (Thermo Fisher Scientific, USA). The compound library comprised about 13,000 compounds from the Drug Discovery Initiative at the University of Tokyo. The compound library includes about 9,600 diverse compounds for pilot screening and about 3,400 known bioactive compounds. All compounds were dissolved and diluted in DMSO to a final concentration of 10 μM. Reaction mixtures were incubated for 2 h at room temperature, and 20 μL aliquots of 300 mM zinc acetate (pH 5.5) were then added directly using a Multidrop dispenser. Fluorescence intensities of KYNA were measured using an ARVO X Multi Label Reader (PerkinElmer, USA) at an excitation wavelength of 340 nm and an emission wavelength of 460 nm. Assay quality was validated by calculating signal–background and Z’ factor. These assays identified approximately 20 candidate KAT2 inhibitors with potent inhibitory activity from about 13,000 compounds. Candidate compounds were validated in quadruplicate KAT2 enzyme activity assays.
Inhibitory activities of the identified compounds against KAT1 and KAT2 were measured using the enzyme activity assays described above. KAT1 reaction mixtures (20 μL) contained 10 ng/μL recombinant human KAT1, 1 mM L-KYN, 1 mM sodium pyruvate, 100 μM PLP, 0.005% Tween 20 and inhibitors at various concentrations in 150 mM 2-amino-2-methyl-1-propanol (AMP) buffer (pH 7.4 or 9.5). […] Following the addition of 20 μL aliquots of 300 mM zinc acetate, fluorescence intensities of KYNA were measured using an ARVO X Multi Label Reader (PerkinElmer, USA).
(§1) To determine steady state kinetic parameters for the substrate L-KYN, 50 μL reaction mixtures containing 10 ng/μL recombinant human KAT2, 1 mM α-KG, 100 μM PLP, 0.005% Tween 20, L-KYN at concentrations of 10, 5, 2.5, 1.25, 0.62, 0.31 and 0.15 mM and GL, GA or CBX or PF-04859989 at 4.5, 6.0 and 3.5 μM and 300 nM, respectively. Following incubation for 30 min at 37 °C, reactions were stopped by adding 3% perchloric acid at a 1:1 ratio. KYNA concentrations were measured using the same HPLC method as described above. Double reciprocal plots were used to determine types of inhibition. Competitive inhibition constants (Ki) for GL, GA and CBX were calculated using the global fit formula (GraphPad Prism v6.07)[60],[61] as follows: v=Vmax∗[S]/(Kmobs+[S])andKmobs=Km×(1+[I]/Ki), where v = initial velocity, Vmax = maximum velocity, [S] = substrate concentration, Km = Michaelis–Menten constant and [I] = inhibitor concentration. The Ki value of PF-04859989 was calculated using the global fit formula as follows: Vmaxinh=Vmax/(1+[I]/Ki)andKmobs=Vmaxinh×[S]/(Km+[S]), where Vmaxinh = maximum enzyme velocity for the concentration of inhibitor. IC50 values were determined by nonlinear curve fitting using GraphPad Prism v6.07. All statistical analyses were performed using GraphPad Prism v6.07.

The target of series [3] is T1, human KAT2. Kind of series: Human KAT2 inhibition kinetics with varying KYN (Lineweaver-Burk, global fit), HPLC. The series is classed as biochemical. The note with it: for Ki: global fit formula, mean ± SEM, read-out: Ki (inhibition constant); for type of inhibition: inhibitor close to its IC50, Lineweaver-Burk. How it is done: as §1
Series [4] addresses T2, human KAT1 (Homo sapiens, UniProt Q16773).
T2 construct: made in house; host or cells: insect Sf9 cells (baculovirus)
T2 sequence (Q16773 1-422): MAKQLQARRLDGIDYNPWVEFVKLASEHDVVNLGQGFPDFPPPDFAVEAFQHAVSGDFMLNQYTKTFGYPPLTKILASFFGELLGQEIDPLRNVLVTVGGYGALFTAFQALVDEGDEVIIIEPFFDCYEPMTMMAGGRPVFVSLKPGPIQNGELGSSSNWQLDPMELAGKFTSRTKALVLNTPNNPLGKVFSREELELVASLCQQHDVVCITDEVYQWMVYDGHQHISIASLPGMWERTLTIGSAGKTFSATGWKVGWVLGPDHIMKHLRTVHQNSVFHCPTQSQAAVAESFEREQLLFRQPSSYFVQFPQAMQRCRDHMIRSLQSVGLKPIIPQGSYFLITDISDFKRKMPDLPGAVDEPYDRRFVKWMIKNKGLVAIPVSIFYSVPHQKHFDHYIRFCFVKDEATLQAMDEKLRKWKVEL
Nature of the series: Human KAT1 enzyme inhibition, microplate fluorescence assay of KYNA. The note with it: recombinant human KAT1, 1 mM L-KYN, 1 mM sodium pyruvate. The series is classed as biochemical. The protocol: (§2) Inhibitory activities of the identified compounds against KAT1 and KAT2 were measured using the enzyme activity assays described above. KAT1 reaction mixtures (20 μL) contained 10 ng/μL recombinant human KAT1, 1 mM L-KYN, 1 mM sodium pyruvate, 100 μM PLP, 0.005% Tween 20 and inhibitors at various concentrations in 150 mM 2-amino-2-methyl-1-propanol (AMP) buffer (pH 7.4 or 9.5). Human and mouse KAT2 reaction mixtures (20 μL) contained 10 ng/μL recombinant human or mouse KAT2, 1 mM L-KYN, 1 mM α-ketoglutaric acid, 100 μM PLP, 0.005% Tween 20 and inhibitors at various concentrations in 150 mM AMP buffer (pH 9.5). Following the addition of 20 μL aliquots of 300 mM zinc acetate, fluorescence intensities of KYNA were measured using an ARVO X Multi Label Reader (PerkinElmer, USA).
as §1

Series [5] concerns the target T3, mouse KAT2 (Mus musculus, UniProt Q9WVM8).
T3 construct: made in house; host or cells: insect Sf9 cells (baculovirus)
Nature of the series: Mouse KAT2 enzyme inhibition, microplate fluorescence assay of KYNA. The series is classed as biochemical. The note with it: recombinant mouse KAT2, 1 mM L-KYN, AMP buffer pH 9.5; mean ± SEM. The protocol:
as §2, §1

Series [6] addresses T4, human KAT4 (Homo sapiens, UniProt P00505).
T4 construct: made in house; host or cells: insect Sf9 cells (baculovirus)
T4 sequence (P00505 30-430): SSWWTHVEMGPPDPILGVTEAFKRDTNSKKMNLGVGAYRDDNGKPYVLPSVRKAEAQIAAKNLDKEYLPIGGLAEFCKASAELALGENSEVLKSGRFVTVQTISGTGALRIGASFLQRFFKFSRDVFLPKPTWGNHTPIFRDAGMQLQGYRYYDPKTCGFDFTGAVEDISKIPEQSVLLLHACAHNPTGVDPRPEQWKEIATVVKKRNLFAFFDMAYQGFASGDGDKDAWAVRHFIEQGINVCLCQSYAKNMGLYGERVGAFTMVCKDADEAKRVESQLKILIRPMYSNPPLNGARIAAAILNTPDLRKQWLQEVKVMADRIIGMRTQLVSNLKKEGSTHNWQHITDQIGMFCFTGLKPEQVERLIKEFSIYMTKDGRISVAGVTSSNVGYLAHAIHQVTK
Nature of the series: Human KAT4 enzyme inhibition, HPLC analysis of KYNA. The settings on record: recombinant human KAT4, 1 mM L-KYN, Tris buffer pH 7.5, HPLC. The format is biochemical. The protocol: (§3) KAT3 and KAT4 enzyme activities were measured using high performance liquid chromatography (HPLC) analyses of reaction products. Briefly, KAT3 reaction mixtures (50 μL) contained 10 ng/μL recombinant human KAT3, 1 mM L-KYN, 1 mM sodium pyruvate, 100 μM PLP, 0.005% Tween 20 and inhibitors at various concentrations in 150 mM AMP buffer (pH 9.5). KAT4 reaction mixtures (50 μL) contained recombinant human KAT4, 1 mM L-KYN, 1 mM α-ketoglutaric acid, 100 μM PLP, 0.005% Tween 20 and inhibitors at various concentrations in 100 mM Tris buffer (pH 7.5). Reaction mixtures were incubated for 1 h at 37 °C and reactions were then stopped by adding 3% perchloric acid at a ratio of 1:1. KYNA contents of reaction mixtures were then determined using HPLC (Shimadzu, Kyoto, Japan) following isocratic elution from a reverse-phase column (TSKgel ODS-100V, 3 μm, 4.6 mm [ID] × 150 mm [L]; Tosoh, Tokyo, Japan) using a mobile phase containing 10 mM sodium acetate with 2% acetonitrile (pH adjusted to 4.5) at flow rate of 0.8 mL/min. KYNA was detected using a fluorescence detector (RF-20Axs) at an excitation wavelength of 344 nm and an emission wavelength of 380 nm.
as §1, with “Double reciprocal plots were used to determine types of inhibition.” left out, “The Ki value of PF-04859989 was calculated using the global fit formula as follows: Vmaxinh=Vmax/(1+[I]/Ki)andKmobs=Vmaxinh×[S]/(Km+[S]), where Vmaxinh = maximum enzyme velocity for the concentration of inhibitor.” left out, “All statistical analyses were performed using GraphPad Prism v6.07.” left out

In series [7] the target is T5, human KAT3 (Homo sapiens, UniProt Q6YP21).
T5 construct: purchased OriGene Technologies, Inc
T5 sequence (Q6YP21 whole entry): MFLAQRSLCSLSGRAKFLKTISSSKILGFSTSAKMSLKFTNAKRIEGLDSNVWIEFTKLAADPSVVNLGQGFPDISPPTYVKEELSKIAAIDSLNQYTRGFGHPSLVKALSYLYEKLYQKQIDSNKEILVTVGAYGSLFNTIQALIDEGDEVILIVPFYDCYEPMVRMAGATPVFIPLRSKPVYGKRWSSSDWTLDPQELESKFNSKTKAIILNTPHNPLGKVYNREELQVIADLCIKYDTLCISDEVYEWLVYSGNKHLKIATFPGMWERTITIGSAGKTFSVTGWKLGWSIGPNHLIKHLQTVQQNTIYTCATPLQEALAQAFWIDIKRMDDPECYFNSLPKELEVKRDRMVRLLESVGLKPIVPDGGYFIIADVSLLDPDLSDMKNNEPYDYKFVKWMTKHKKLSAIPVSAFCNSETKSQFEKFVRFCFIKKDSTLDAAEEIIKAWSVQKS
Nature of the series: Human KAT3 enzyme inhibition, HPLC analysis of KYNA. The format is biochemical. The note with it: recombinant human KAT3, 1 mM L-KYN, AMP buffer pH 9.5, HPLC; mean ± SEM. How it is done: as §3, with “nm. […]” for “nm.”

For series [8] the following is noted: cited from earlier work.
The mark [9] stands for this setting: human KAT2 at physiological conditions (pH 7.4).
The mark [10] stands for this setting: recombinant human KAT2, 1 mM L-KYN, AMP buffer pH 9.5, mean ± SEM, three experiments.

T3 sequence (Q9WVM8 30-425): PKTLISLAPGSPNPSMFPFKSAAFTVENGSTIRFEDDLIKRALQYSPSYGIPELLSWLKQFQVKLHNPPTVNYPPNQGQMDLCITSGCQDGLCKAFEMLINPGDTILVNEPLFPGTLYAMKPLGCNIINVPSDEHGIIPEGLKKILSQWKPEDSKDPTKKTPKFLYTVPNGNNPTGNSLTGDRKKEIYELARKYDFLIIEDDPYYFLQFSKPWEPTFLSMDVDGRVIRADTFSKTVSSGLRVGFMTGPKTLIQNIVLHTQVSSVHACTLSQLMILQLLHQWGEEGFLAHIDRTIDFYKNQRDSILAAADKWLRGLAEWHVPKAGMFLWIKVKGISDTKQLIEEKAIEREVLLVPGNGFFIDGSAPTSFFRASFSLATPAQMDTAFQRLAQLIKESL

For the compound `O=C(O)C(Cc1ccccc1)N1C(=O)c2cc(Cl)c(Cl)cc2C1=O` (centres unmarked) [NS-1502], in series [1], the IC50 was 315 µM.
Regarding `CC1(C)[C@@H](O)CC[C@]2(C)[C@H]3C(=O)C=C4[C@@H]5C[C@@](C)(C(=O)O)CC[C@]5(C)CC[C@@]4(C)[C@]3(C)CC[C@@H]12` [GA, glycyrrhetinic acid], the IC50 in series [2] (setting [9]) was 9.87 ± 0.32 µM; in series [2] (setting [10]), 6.96 ± 0.37 µM; in series [4], greater than 500 µM; in series [5] it was 56.8 ± 1.45 µM; in series [6], greater than 500 µM. In addition, the inhibition constant Ki in series [3] amounted to 6.92 ± 0.6 µM. Also, in series [3], the type of inhibition entry is recorded as “competitive inhibitors of KYN”.
`CC1(C)[C@@H](O[C@H]2O[C@H](C(=O)O)[C@@H](O)[C@H](O)[C@H]2O[C@@H]2O[C@H](C(=O)O)[C@@H](O)[C@H](O)[C@H]2O)CC[C@]2(C)[C@H]3C(=O)C=C4[C@@H]5C[C@@](C)(C(=O)O)CC[C@]5(C)CC[C@@]4(C)[C@]3(C)CC[C@@H]12` [GL, glycyrrhizic acid]: the IC50 in series [2] (setting [9]) was 7.93 ± 0.17 µM; in series [2] (setting [10]), 4.51 ± 0.2 µM; in series [4] it was greater than 500 µM; in series [5] it was 86.2 ± 1.94 µM; in series [7], greater than 500 µM; in series [6], greater than 500 µM. The Ki in series [3] is 10.4 ± 1.62 µM. In addition, the type of inhibition result in series [3] is listed as “competitive inhibitors of KYN”.
For `N[C@H]1Cc2ccccc2N(O)C1=O` [PF-04859989], the IC50 in series [2] (KAT2, as determined in our assays) worked out at 0.3 µM. Moreover, in series [3], the Ki came to 0.22 ± 0.01 µM and the type of inhibition result is listed as “maximum reaction rates (Vmax) varied but the Michaelis–Menten constant (Km) did not change”.
For “(S)-4-(ethylsulfonyl)benzoylalanine [S-ESBA]”, in series [1], the IC50 is roughly 1000 µM.
Turning to `CC1(C)[C@@H](OC(=O)CCC(=O)O)CC[C@]2(C)[C@H]3C(=O)C=C4[C@@H]5C[C@@](C)(C(=O)O)CC[C@]5(C)CC[C@@]4(C)[C@]3(C)CC[C@@H]12` [CBX, carbenoxolone], the IC50 in series [2] (setting [9]) was 3.34 ± 0.25 µM; in series [2] (setting [10]), 3.9 ± 0.37 µM; in series [4], greater than 500 µM; in series [5], 19.8 ± 0.34 µM; in series [7], greater than 500 µM; in series [6], greater than 500 µM. In series [3], the Ki stood at 4.11 ± 0.37 µM. Further, the type of inhibition entry in series [3] is listed as “competitive inhibitors of KYN”. In series [8], the “passage through the BBB” value was “failed to pass through the BBB”.
